Here are results for 20 compounds from ChEMBL document CHEMBL2440105, “Synthesis and anti-parasitic activity of a novel quinolinone-chalcone series” (Bioorg Med Chem Lett, 2013).

The subject of test [1] is THP-1. Briefly: Cytotoxicity against human THP1 cells after 72 hrs by MTT assay. The class given is cell-based. The settings on record: THP-1, 72 h.
Another test concerns Leishmania infantum. Briefly: Antileishmanial activity against Leishmania infantum MOM/MA671TMAP263 axenic amastigotes infected in THP1 cells after 72 hrs by luciferase reporter gene assay. It counts as functional, organism-based. Conditions: MOM/MA671TMAP263, THP-1, 72 h. For orientation: Reporter assays use an easily measured gene product as a stand-in for the process of interest.

In test [2] the test system is Trypanosoma brucei brucei. Put plainly: Trypanocidal activity against bloodstream forms of Trypanosoma brucei brucei Lister 427 clone 221a after 72 hrs by AlamarBlue assay. The class given is functional, organism-based. A general note: Resazurin is reduced to fluorescent resorufin, in cell work by metabolically active cells.
Test [3] has as its system THP-1. Briefly: Cytotoxicity against human THP1 cells by AlamarBlue assay.

As to `COc1ccc(/C=C/C(=O)c2c(O)c3ccccc3n(Cc3ccccc3)c2=O)cc1OC`, the 50% inhibitory concentration (IC50) was 28.7 µM in the test on THP-1 [1], more than 25 µM with Leishmania infantum and 5.68 µM in test [2].
For `COc1ccc(C2CC(c3c(O)c4ccccc4[nH]c3=O)=NN2c2ccccc2)cc1OC` (stereo not drawn) the same measures were more than 50 µM, 13.5 µM and 1.46 µM.
For `CC(=O)N1N=C(c2c(O)c3ccccc3[nH]c2=O)CC1c1ccccc1C` (stereo not drawn) the same measures were 4.15 µM, 0.71 µM and 1.43 µM.
For `Cc1ccc(/C=C/C(=O)c2c(O)c3ccccc3[nH]c2=O)cc1` the same measures were more than 50 µM, 2.1 µM and more than 10 µM.
Consider `Cc1ccccc1/C=C/C(=O)c1c(O)c2ccccc2[nH]c1=O`, for which the IC50 in the test with THP-1 [1] is more than 50 µM; in the test on Leishmania infantum, more than 50 µM; in test [2], 2.6 µM.
On to `COc1cc(/C=C/C(=O)c2c(O)c3ccccc3[nH]c2=O)ccc1O`, for which the figures for the IC50 (with THP-1 [1]; in the test with Leishmania infantum; in test [2]) were 23.3 µM, 11.5 µM and 4.9 µM, respectively.
For `COc1cccc(/C=C/C(=O)c2c(O)c3ccccc3[nH]c2=O)c1` the same measures were 38.5 µM, 28.4 µM and 6.5 µM.
As to `COc1ccc(/C=C/C(=O)c2c(O)c3ccccc3[nH]c2=O)cc1`, the IC50 with THP-1 [1] was more than 50 µM; in the test with Leishmania infantum it was 12.7 µM; in test [2], more than 10 µM.
As for `COc1ccc(/C=C/C(=O)c2c(O)c3ccccc3[nH]c2=O)cc1OC`, the values for the IC50 (with THP-1 [1]; in the test on Leishmania infantum; in test [2]) were more than 50 µM, 7.5 µM and 4.9 µM, respectively.
For `CC(C)(C)c1cc(/C=C/C(=O)c2c(O)c3ccccc3[nH]c2=O)cc(C(C)(C)C)c1O` the same measures were 26.2 µM, 1.3 µM and 3.3 µM.
Regarding `O=C(/C=C/c1ccc(C(F)(F)F)cc1)c1c(O)c2ccccc2[nH]c1=O`, the IC50 was more than 50 µM in the test on THP-1 [1], 3.1 µM in the test with Leishmania infantum and more than 10 µM in test [2].
For `O=C(/C=C/c1ccc([N+](=O)[O-])cc1)c1c(O)c2ccccc2[nH]c1=O` the same measures were more than 50 µM, 26.9 µM and more than 10 µM.
For `O=C(O)c1ccc(/C=C/C(=O)c2c(O)c3ccccc3[nH]c2=O)cc1` the same measures were more than 50 µM, 18.4 µM and more than 10 µM.
For `O=C(/C=C/C=C/c1ccccc1)c1c(O)c2ccccc2[nH]c1=O` the same measures were more than 50 µM, more than 50 µM and more than 10 µM.
For `CC(/C=C/C(=O)c1c(O)c2ccccc2[nH]c1=O)=C\c1ccccc1`, the half-maximal inhibitory concentration (IC50) in the test on THP-1 [1] was more than 50 µM; in the test with Leishmania infantum, 20 µM; in test [2], more than 10 µM.
Regarding `CCn1c(=O)c(C(=O)/C=C/c2ccccc2C)c(O)c2ccccc21`, the IC50 is more than 50 µM in the test on THP-1 [1], 24.8 µM in the test with Leishmania infantum and more than 10 µM in test [2].
For the compound `CCn1c(=O)c(C(=O)/C=C/c2ccc(OC)c(OC)c2)c(O)c2ccccc21`, the IC50 in the test on THP-1 [1] is more than 50 µM; in the test on Leishmania infantum, more than 50 µM; in test [2], more than 10 µM.
In the case of `Cc1ccccc1/C=C/C(=O)c1c(O)c2ccccc2n(Cc2ccccc2)c1=O`, the IC50 in the test on THP-1 [1] was 45.7 µM; in the test on Leishmania infantum, more than 25 µM; in test [2], 6.17 µM.
In the case of `C[C@@H]1[C@H](O)[C@@H](C)/C=C/C=C/C=C/C=C/C=C/C=C/C=C/[C@H](O[C@@H]2O[C@H](C)[C@@H](O)[C@H](N)[C@@H]2O)C[C@@H]2O[C@](O)(C[C@@H](O)C[C@@H](O)[C@H](O)CC[C@@H](O)C[C@@H](O)CC(=O)O[C@H]1C)C[C@H](O)[C@H]2C(=O)O` [AMPHOTERICIN B], the IC50 in the test on THP-1 [1] is 23.8 µM; in the test on Leishmania infantum, 1.2 µM.
Consider `CC1CS(=O)(=O)CCN1/N=C/c1ccc([N+](=O)[O-])o1` (stereo not drawn) [NIFURTIMOX], for which the IC50 with THP-1 [3] is more than 100 µM; in test [2] it was 2.9 µM.

The term IC50 denotes the point on the concentration scale where inhibition reaches its midpoint. A lower IC50 goes with greater potency in that assay.
